Drawing on patent US6506779B1, “Acetylene derivatives as anti-inflammatory/analgesic agents” (Pfizer Inc., priority 1999, dated 2003), this text covers melting point for three compounds.

As usually defined, the melting point is the temperature, or range, at which the solid turns liquid. Compound `CS(=O)(=O)c1ccc(-n2nc(C(F)(F)F)cc2-c2ccc(C#Cc3ccccc3)cc2)cc1` [Example 15, 1-[4-(Methylsulfonyl)Phenyl]-5-[4-(Phenylethynyl)Phenyl]-3-Trifluoromethyl-1H-Pyrazole] yielded a melting point of 170 to 172 °C.

Take `CS(=O)(=O)c1ccc(-n2nc(C(F)(F)F)cc2-c2ccc(C#CCCCO)cc2)cc1` [Example 17, 5-[4-(5-Hydroxy-1-Pentyn-1-yl)Phenyl]-1-[4-(Methylsulfonyl)Phenyl]-3-Trifluoromethyl-1H-Pyrazole]: the melting point was 87 to 90 °C.

Regarding `CCCCC#Cc1ccc(-c2cc(C(F)(F)F)nn2-c2ccc(S(C)(=O)=O)cc2)cc1` [Example 16, 5-[4-(1-Hexyn-1-yl)Phenyl]-1-[4-(Methylsulfonyl)Phenyl]-3-Trifluoromethyl-1H-Pyrazole], the melting point fell in the range of 96 to 98 °C.
